Each structure is given as a SMILES string. Where a name gives a salt, the structure may show the parent alone.

In general, IC50 refers to the point on the concentration scale where inhibition reaches its midpoint. Read a low IC50 as inhibition by little substance.

The assay deals with T1, R398Q mutant KCNT1 channels (Homo sapiens, UniProt Q5JUK3, R379Q).
T1 construct: YFP-6His; expressed in transfected cells; host or cells: HEK293T
T1 sequence (Q5JUK3 1-1235 isoform Q5JUK3-3 R398Q): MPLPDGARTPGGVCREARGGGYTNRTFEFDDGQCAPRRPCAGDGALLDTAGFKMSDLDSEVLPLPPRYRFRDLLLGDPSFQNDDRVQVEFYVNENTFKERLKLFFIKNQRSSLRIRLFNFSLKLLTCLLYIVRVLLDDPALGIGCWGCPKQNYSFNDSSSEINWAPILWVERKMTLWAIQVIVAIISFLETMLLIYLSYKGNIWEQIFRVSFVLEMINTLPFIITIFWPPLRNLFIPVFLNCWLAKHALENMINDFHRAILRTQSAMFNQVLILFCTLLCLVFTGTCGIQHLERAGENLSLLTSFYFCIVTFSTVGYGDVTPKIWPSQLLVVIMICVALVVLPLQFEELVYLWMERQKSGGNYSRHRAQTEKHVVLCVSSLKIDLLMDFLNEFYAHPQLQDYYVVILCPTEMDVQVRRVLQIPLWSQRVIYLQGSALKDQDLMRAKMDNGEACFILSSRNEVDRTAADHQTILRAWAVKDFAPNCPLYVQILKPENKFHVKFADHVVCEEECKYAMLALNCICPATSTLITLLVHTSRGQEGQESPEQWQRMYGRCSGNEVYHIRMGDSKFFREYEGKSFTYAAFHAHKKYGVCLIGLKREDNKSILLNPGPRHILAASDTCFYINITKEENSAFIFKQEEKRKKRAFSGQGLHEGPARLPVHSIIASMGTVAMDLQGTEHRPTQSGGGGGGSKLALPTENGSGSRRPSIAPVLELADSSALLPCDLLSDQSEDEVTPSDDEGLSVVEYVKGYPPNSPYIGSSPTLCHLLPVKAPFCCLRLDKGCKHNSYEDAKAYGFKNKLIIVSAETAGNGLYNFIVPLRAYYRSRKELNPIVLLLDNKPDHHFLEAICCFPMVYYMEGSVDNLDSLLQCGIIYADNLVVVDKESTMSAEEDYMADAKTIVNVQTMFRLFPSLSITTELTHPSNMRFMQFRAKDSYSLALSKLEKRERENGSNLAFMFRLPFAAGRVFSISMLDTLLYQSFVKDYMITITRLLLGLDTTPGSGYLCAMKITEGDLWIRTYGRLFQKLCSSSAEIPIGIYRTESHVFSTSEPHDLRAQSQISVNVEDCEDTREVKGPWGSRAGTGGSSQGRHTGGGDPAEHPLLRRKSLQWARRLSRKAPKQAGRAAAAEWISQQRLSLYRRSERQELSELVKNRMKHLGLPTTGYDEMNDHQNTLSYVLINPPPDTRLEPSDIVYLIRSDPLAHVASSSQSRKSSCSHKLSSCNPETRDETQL
The experiment in a line: Inside-out patch clamp of HEK293T cells expressing R398Q KCNT1. The assay is classed as cell-based. Conditions: inside-out patches, mean ± SEM. Here is the method: The CHO cells were cultured in Dulbecco's modified Eagle's Medium (ThermoFisher, UK) supplemented with 10% (v/v) fetal bovine serum, 50 U/ml penicillin and 0.05 mg/ml streptomycin, and incubated at 37°C in 5% CO2 atmosphere. For whole cell recording of WT/Y796H KCNT1, CHO cells were transiently co‐transfected with concatemeric WT/Y796H and EYFP, as described previously.[29] For electrophysiological experiments, cells were plated onto borosilicate glass cover slips and used 2 to 4 days later. Human embryonic kidney 293T cells (HEK293T) were cultured in the same manner, but with medium supplemented with 2 mM L‐glutamine, and 1% (v/v) nonessential amino acids. For excised inside‐out recording of homomeric WT or mutant YFP‐tagged KCNT1, HEK293T cells plated on glass cover slips were transfected using Attractene Transfection Reagent (Qiagen, Germany) according to the manufacturer's instructions and used 2 to 3 days later.
Inside‐out patch clamp recordings were made at room temperature (23°C) from transiently transfected HEK293T cells, as described previously.[11] The pipette solution contained, in mM, 140 NaCl, 4 KCl, 2 CaCl2, 2 MgCl2, and 10 HEPES adjusted to pH 7.4 with NaOH. […] KCNT1 currents were recorded using 2 voltage protocols, depending on the number of active channels in the patch before drug application. Macroscopic currents (number of active channels > 15) were recorded in response to 100 ms voltage ramps between −120 and 120 mV applied every 2 seconds from a holding potential of −78 mV. […] With a lower number of active channels in the patch (3–15), current traces were recorded in response to 15‐second voltage steps to −20, 0, and 20 mV from a holding potential of −78 mV. Currents recorded at each voltage and each drug concentration were averaged over the duration of the trace and normalized to the average amplitudes of the corresponding current traces in drug‐free solution. […] Single channel data were analyzed using Ana software developed by Dr Michael Pusch (Istituto di Biofisica, Genova, Italy; http://users.ge.ibf.cnr.it/pusch/programs-mik.htm). […]
Consider `Cc1c(O)cccc1C(=O)N[C@@H](CSc1ccccc1)[C@H](O)CN1C[C@H]2CCCC[C@H]2C[C@H]1C(=O)NC(C)(C)C` [nelfinavir mesylate], for which the midpoint of inhibition, the IC50, lay at 11.2 ± 2.2 nM.

With `O=C(OCCN1CCN(c2cccc(C(F)(F)F)c2)CC1)c1ccccc1Nc1ccnc2cc(C(F)(F)F)ccc12` [antrafenine], the 50% inhibitory concentration (IC50) came to 30.7 ± 7.4 nM.

In turn, `CC(C)c1c(C(=O)Nc2ccccc2)c(-c2ccccc2)c(-c2ccc(F)cc2)n1CC[C@@H](O)C[C@@H](O)CC(=O)O` [atorvastatin] showed a half-maximal inhibitory concentration (IC50) of 4500 ± 1700 nM.

These data come from publication PMC12682947, “Identification of New KCNT1‐Epilepsy Drugs by In Silico, Cell, and Drosophila Modeling” (Annals of Neurology, 2025).
